IC50 data for 23 molecules are collected here from patent US11173145B2, “Compounds useful as inhibitors of indoleamine 2,3-dioxygenase and/or tryptophan dioxygenase” (Board of Regents, The University of Texas System, priority 2017, dated 2021).

For this assay, the target named is T1, IDO1 (Homo sapiens, UniProt P14902).
T1 construct: endogenous in cells; host or cells: HeLa cells (ATCC), IFNgamma-induced
As to the kind of experiment: IDO1 cell-based assay (HeLa cells, IFNgamma-induced, N-formylkynurenine/L-tryptophan by RFMS). The conditions noted are these: 10 ng/mL IFNgamma, 24 hours. The method, then: HeLa cells were obtained from the American Type Culture Collection (ATCC) and maintained in DMEM media containing 10% FBS. Cells (7,000/well) were seeded onto a 384 well plate in 50 μL of media and incubated at 37° C., 5% CO2 overnight. Cell media was aspirated, fresh media containing 10 ng/mL IFNgamma was added, and cells were incubated in absence or presence of various concentrations of test compound (final 0.5% DMSO) for 24 hours. Aliquots of the cell conditioned media were removed from the cell plate, and mixed with an equal volume of 200 mM ZnSO4 to precipitate media containing proteins. Two volumes of acetonitrile were added, mixed, and samples were then centrifuged at 2250G for 20 minutes at 4° C. Aliquots of the supernatant were diluted 1:10 in 0.1% formic acid containing 3 μM of deuterated Tryptophan as an internal standard.
Samples were analyzed via RFMS to quantify N-Formyl Kynurenine (AUC) and L-tryptophan (AUC). A C18 cartridge was used with mobile phases of 0.1% Formic Acid and 80% ACN/0.1% Formic Acid under isocratic conditions. Dose-response curves were analyzed using IC50 regression curve fitting (GeneData Screener). […] Cell viability was also assessed using the Cell Titer Glo Kit (Promega) following manufacturer recommendation.

T1 sequence (P14902 whole entry): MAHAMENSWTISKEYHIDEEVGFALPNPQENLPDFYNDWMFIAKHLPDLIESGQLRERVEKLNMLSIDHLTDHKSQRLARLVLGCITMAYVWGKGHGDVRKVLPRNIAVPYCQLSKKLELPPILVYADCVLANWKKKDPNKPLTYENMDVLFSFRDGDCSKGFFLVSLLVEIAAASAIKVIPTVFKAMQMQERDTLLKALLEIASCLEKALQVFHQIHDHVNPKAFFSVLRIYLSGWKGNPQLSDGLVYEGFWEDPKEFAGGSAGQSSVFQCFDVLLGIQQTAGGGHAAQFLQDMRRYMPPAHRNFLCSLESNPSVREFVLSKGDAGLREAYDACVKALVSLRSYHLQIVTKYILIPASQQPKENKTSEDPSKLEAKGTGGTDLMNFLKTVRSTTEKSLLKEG

Consider `CCC(NC(=O)c1ccc(Cl)cc1)[C@H]1[C@@H]2C[C@@H](Nc3ccc(C#N)cc3[N+](=O)[O-])C[C@@H]21` (stereo partly drawn) [Compound 269, 4-chloro-N-(1-((1R,3s,5S,6r)-3-((4-cyano-2-nitrophenyl)amino)bicyclo[3.1.0]hexan-6-yl)propyl)benzamide], for which the half-inhibitory concentration (IC50) was less than 200 nM. In the case of `CCC(NC(=O)c1ccc(Cl)cn1)C1[C@H]2CC(Oc3cnnc4ccccc34)C[C@@H]12` (stereo partly drawn) [Compound 77, 5-chloro-N-(1-((1R,5S)-3-(cinnolin-4-yloxy)bicyclo[3.1.0]hexan-6-yl)propyl)picolinamide], the half-inhibitory concentration (IC50) lay in the range of 200 to 2000 nM. To `O=C(Nc1ccc(Cl)cc1)C1[C@H]2CC(Oc3ccnc4ccccc34)C[C@@H]12` (stereo partly drawn) [Compound 8, (1R,5S)-N-(4-chlorophenyl)-3-(quinolin-4-yloxy)bicyclo[3.1.0]hexane-6-carboxamide] belongs 2000 to 5000 nM. To `N#Cc1ccc(C(=O)NC[C@@H]2[C@H]3C[C@H](n4cnc5cc(F)c(F)cc54)C[C@@H]23)cc1` [Compound 302, 4-cyano-N-(((1R,3s,5S,6r)-3-(5,6-difluoro-1H-benzo[d]imidazol-1-yl)bicyclo[3.1.0]hexan-6-yl)methyl)benzamide] belongs less than 200 nM; to `CCC(NC(=O)c1ccc(Cl)cc1)[C@H]1[C@@H]2C=CC[C@@H]21` (stereo partly drawn) [Compound 113, N-(1-((1R,5S,6R)-bicyclo[3.1.0]hex-2-en-6-yl)propyl)-4-chlorobenzamide], 200 to 2000 nM; to `O=C(Cc1ccc(Cl)cc1)NC1C2CN(c3ccnc4ccc(F)cc34)CC21` (centres unmarked) [Compound 109, 2-(4-Chlorophenyl)-N-(3-(6-fluoroquinolin-4-yl)-3-azabicyclo[3.1.0]hexan-6-yl)acetamide], greater than 5000 nM. To `CCC(NC(=O)c1ccc(Cl)cc1)[C@H]1[C@@H]2C[C@@H](OC3CCOCC3)C[C@@H]21` (stereo partly drawn) [Compound 101, 4-chloro-N-(1-((1R,3s,5S,6r)-3-((tetrahydro-2H-pyran-4-yl)oxy)bicyclo[3.1.0]hexan-6-yl)propyl)benzamide] belongs 200 to 2000 nM; to `O=C(NC[C@H]1[C@H]2C[C@H](Oc3cc(C(F)(F)F)nc4ccc(F)cc34)C[C@@H]12)c1ccc(Cl)cc1` [Compound 24, 4-chloro-N-(((1R,3s,5S,6s)-3-((6-fluoro-2-(trifluoromethyl)quinolin-4-yl)oxy)bicyclo[3.1.0]hexan-6-yl)methyl)benzamide], 200 to 2000 nM; to `CCC(NC(=O)c1ccc(Cl)cc1)C1C2CC(Oc3nncc4ccccc34)CC21` [Compound 72, 4-chloro-N-(1-((1R,3s,5S,6r)-3-(phthalazin-1-yloxy)bicyclo[3.1.0]hexan-6-yl)propyl)benzamide], less than 200 nM.

Take `CC[C@H](NC(=O)c1ccc(Cl)cc1)[C@H]1[C@@H]2C[C@@H](Oc3cnnc4ccccc34)C[C@@H]21` [Compound 103, 4-chloro-N-((S)-1-((1R,3R,5S,6r)-3-(cinnolin-4-yloxy)bicyclo[3.1.0]hexan-6-yl)propyl)benzamide]: the concentration for half-maximal inhibition (IC50) was less than 200 nM.

Take `O=C(Cc1ccc(Cl)cc1)N[C@H]1[C@@H]2C[C@@H](n3ncc(=O)c4ccccc43)C[C@@H]21` [Compound 85, 2-(4-chlorophenyl)-N-((1R,3s,5S,6r)-3-(4-oxocinnolin-1(4H)-yl)bicyclo[3.1.0]hexan-6-yl)acetamide]: the IC50 was greater than 5000 nM.

Regarding `O=C(NCc1ccc(Cl)cc1)C1[C@H]2CC(Oc3ccnc4ccccc34)C[C@@H]12` (stereo partly drawn) [Compound 16, (1R,5S)-N-(4-chlorobenzyl)-3-(quinolin-4-yloxy)bicyclo[3.1.0]hexane-6-carboxamide], the IC50 was greater than 5000 nM. To `CCC(NC(=O)c1ccc(Cl)cc1)[C@H]1[C@@H]2C[C@@H](Oc3ccccc3CN(C)C)C[C@@H]21` (stereo partly drawn) [Compound 48, 4-chloro-N-(1-((1R,3s,5S,6r)-3-(2-((dimethylamino)methyl)phenoxy)bicyclo[3.1.0]hexan-6-yl)propyl)benzamide] belongs 2000 to 5000 nM; to `CC(NC(=O)c1ccc(C#N)cc1)C1[C@H]2CC(Oc3ncnc4ccc(F)cc34)C[C@@H]12` (stereo partly drawn) [Compound 107, 4-cyano-N-(1-((1R,3s,5S,6r)-3-((6-fluoroquinazolin-4-yl)oxy)bicyclo[3.1.0]hexan-6-yl)ethyl)benzamide], less than 200 nM; to `CCC(NC(=O)c1ccc(Cl)cc1)[C@H]1[C@@H]2C[C@@H](NC(=O)N3CCOCC3)C[C@@H]21` (stereo partly drawn) [Compound 157, N-((1R,3s,5S,6r)-6-(1-(4-chlorobenzamido)propyl)bicyclo[3.1.0]hexan-3-yl)morpholine-4-carboxamide], 200 to 2000 nM. As for `CC(NC(=O)c1ccc(C#N)cc1)[C@H]1[C@@H]2C[C@@H](n3cc(C4CC4)nn3)C[C@@H]21` (stereo partly drawn) [Compound 129, 4-cyano-N-(1-((1R,3s,5S,6r)-3-(4-cyclopropyl-1H-1,2,3-triazol-1-yl)bicyclo[3.1.0]hexan-6-yl)ethyl)benzamide], the IC50 lay in the range of 200 to 2000 nM. To `CC[C@@H](NC(=O)c1cccc(C#N)c1)[C@H]1[C@@H]2C[C@@H](n3cnc4cc(F)c(F)cc43)C[C@@H]21` [Compound 313, 3-cyano-N-((R)-1-((1R,3S,5S,6r)-3-(5,6-difluoro-1H-benzo[d]imidazol-1-yl)bicyclo[3.1.0]hexan-6-yl)propyl)benzamide] belongs less than 200 nM. For `CC[C@@H](NC(=O)c1csc(C)n1)[C@H]1[C@@H]2C[C@@H](n3cnc4cc(F)c(F)cc43)C[C@@H]21` [Compound 309, N-((R)-1-((1R,3S,5S,6r)-3-(5,6-difluoro-1H-benzo[d]imidazol-1-yl)bicyclo[3.1.0]hexan-6-yl)propyl)-2-methylthiazole-4-carboxamide], the IC50 was 200 to 2000 nM.

Regarding `CC[C@@H](NC(=O)N1CC(F)(F)C1)[C@H]1[C@@H]2C[C@@H](n3cnc4cc(F)c(F)cc43)C[C@@H]21` [Compound 354, N-((R)-1-((1R,3S,5S,6r)-3-(5,6-difluoro-1H-benzo[d]imidazol-1-yl)bicyclo[3.1.0]hexan-6-yl)propyl)-3,3-difluoroazetidine-1-carboxamide], the IC50 lay within 200 to 2000 nM. To `CCC(NC(=O)c1ccc(Cl)cc1)[C@H]1[C@@H]2C[C@@H](n3cc(C(=O)O)nn3)C[C@@H]21` (stereo partly drawn) [Compound 94, 1-((1R,3s,5S,6r)-6-(1-(4-chlorobenzamido)propyl)bicyclo[3.1.0]hexan-3-yl)-1H-1,2,3-triazole-4-carboxylic acid] belongs greater than 5000 nM. Next, `CC[C@@H](NC(=O)c1ccc(Cl)cc1)[C@H]1[C@@H]2C[C@@H](NC(=O)c3ccccn3)C[C@@H]21` [Compound 333, N-((1R,3S,5S,6r)-6-((R)-1-(4-chlorobenzamido)propyl)bicyclo[3.1.0]hexan-3-yl)picolinamide]: less than 200 nM; `CC[C@@H](NC(=O)c1ccc(Cl)cc1)[C@H]1[C@@H]2C[C@@H](Nc3ncnc4ccc(C)cc34)C[C@@H]21` [Compound 338, 4-chloro-N-((R)-1-((1R,3S,5S,6r)-3-((6-methylquinazolin-4-yl)amino)bicyclo[3.1.0]hexan-6-yl)propyl)benzamide]: less than 200 nM; `CC[C@@H](NC(=O)c1ccc(Cl)cc1)[C@H]1[C@@H]2C[C@@H](n3cc(C)cn3)C[C@@H]21` [Compound 330, 4-chloro-N-((R)-1-((1R,3S,5S,6r)-3-(4-methyl-1H-pyrazol-1-yl)bicyclo[3.1.0]hexan-6-yl)propyl)benzamide]: less than 200 nM.

What is called IC50 is the concentration needed to halve the response being measured. A higher IC50 goes with weaker potency in that assay.
